Experimental data reported in patent publication US9994830B2, “Methods for modulating cyclic nucleotide-mediated signaling in cardiac myocytes and compositions” (The United States of America as Represented by the …, priority 2014, dated 2018).

Legend:
[1] = test system: neonatal rat ventricular myocytes; experiment: Hypertrophy of neonatal rat ventricular myocytes (PDE3 inhibitor treatment or transfection with dominant-negative constructs, with or without norepinephrine); format: cell-based; conditions: for cellular hypertrophy: neonatal rat ventricular myocytes, treatment or transfection alone
From the text: FIG. 5. Anti-hypertrophic actions of PDE3A1-selective targeting in neonatal rat ventricular myocytes.
In contrast, expression of the PDE3A1 dominant negative has no pro-hypertrophic effect, and actually blocks the hypertrophic responses to norepinephrine.
In neonatal rat ventricular myocytes, conventional PDE3 inhibition promotes cellular hypertrophy, which may be associated with adverse consequences in heart failure. We questioned what effect PDE3A1-selective inhibition would have. […] The F1004A substitution is a change in the amino acid sequence of PDE3A1 at amino acid position 1004 from a phenylalanine to an alanine. We transfected neonatal rat ventricular myocytes with this dominant-negative construct to competitively block the protein-protein interactions that localize PDE3A1 to specific intracellular microdomains. […] To our knowledge, this is the first direct evidence that conventional PDE3 inhibition and isoform-selective targeting have different effects in cardiac myocytes, and that some of the adverse consequences of nonselective PDE3 inhibition may be averted by isoform-selective targeting involving protein-protein interactions.

PLB = experiment: cAMP-dependent phosphorylation of endogenous PLB in human myocardial membranes; format: biochemical; conditions: 0.1 μM cAMP; cilostamide 1 μM or rolipram 10 μM; human left ventricular microsomes
Description: (§1) FIG. 7 a-f. cAMP, PKA, and PDE3-inhibition increase SERCA2 activity and Ca^2+ uptake. A. After incubation of SR fractions (20 μg) in the absence or presence of the indicated concentrations of ATP and/or cAMP, without or with cilostamide or rolipram, endogenous PLB, phosphorylated PLB, and ρ-actin were detected after SDS-PAGE and immunoblotting. Data are representative of three experiments. In these and other Western blots, PLB is predominantly monomeric, most likely due to the heating of samples, prior to electrophoresis, under reducing conditions (buffer containing β-mercatoethanol, DTT, and SDS). B. Bar graph summarizing pSer16PLB/PLB total ratios. *P<0.01 vs. control (n=3 independent experiments). C. PDE activity in human cardiac SR fractions, expressed as specific activity (pmol cAMP hydrolyzed/min/mg). Results are presented as mean+/−SEM (n=3 preparations). PDE3 activity was determined as the cilostamide-sensitive fraction, and PDE4 activity as the rolipram-sensitive fraction. […] D. After incubation of SR fractions without or with the indicated concentrations of cAMP (0-10 μM), ^45Ca^2+ uptake was measured in the presence of 0.5 μM free Ca^2+. Results are presented as % increase due to cAMP, with basal Ca^2+ uptake (9.4+/−0.8 nmol/mg/min, n=3) taken as 100%. […]

SR vesicles = experiment: 45Ca2+ uptake in SR vesicles from human myocardium; format: biochemical; conditions: cAMP 3 μM, cilostamide 1 μM; SR fractions
Description: as §1, with “B. Bar graph summarizing pSer16PLB/PLB total ratios. *P<0.01 vs. control (n=3 independent experiments). C.” left out, “Results are presented as mean+/−SEM (n=3 preparations).” left out, “Ca^2+.” for “Ca^2+. Results are presented as % increase due to cAMP, with basal Ca^2+ uptake (9.4+/−0.8 nmol/mg/min, n=3) taken as 100%.”
Oxalate-dependent Ca^2+ uptake was quantified as described previously (17). […] After washing four times with 4 ml buffer containing 140 mM KCl, 10 mM NaCl, 2 mM MgCl2, 1 mM CaCl2 and 50 mM imidazole-HCl, (pH 7.0), radioactivity retained on the filters was quantified by liquid scintillation counting. Free [Ca^2+] was calculated using a program obtained at http://www.stanford.edu/˜cpatton/webmaxc/webmaxcS.htm.

Q: With `CN(C(=O)CCCOc1ccc2[nH]c(=O)ccc2c1)C1CCCCC1` [cilostamide] as the molecule, how does the cellular hypertrophy [1] read?
A: The cellular hypertrophy was “promote myocyte hypertrophy”.

Q: And the “phosphorylation of PLB at S16 by endogenous PKA” value (PLB)?
A: Its value is “stimulated”.

Q: And the “effect on cAMP-increased ATP-dependent, oxalate-supported Ca2+ uptake” value (SR vesicles)?
A: Its value is “potentiated”.

Q: Which “phosphorylation of PLB at S16 by endogenous PKA” value (PLB) does the source give for `COc1ccc(C2CNC(=O)C2)cc1OC1CCCC1` (stereo not drawn) [rolipram] here?
A: The value was “no effect”.

B1: PDE3A1-F1004A: RFP-tagged PDE3A1 construct with F1004A substitution in the C-terminus yielding a catalytically inactive, dominant-negative protein (SEQ ID NO:2) (protein, listed as Homo sapiens)
chain: MAVPGDAARVRDKPVHSGVSQAPTAGRDCHHRADPASPRDSGCRGCWGDLVLQPLRSSRKLSSALCAGSLSFLLALLVRLVRGEVGCDLEQCKEAAAAEEEEAAPGAEGGVFPGPRGGAPGGGARLSPWLQPSALLFSLLCAFFWMGLYLLRAGVRLPLAVALLAACCGGEALVQIGLGVGEDHLLSLPAAGVVLSCLAAATWLVLRLRLGVLMIALTSAVRTVSLISLERFKVAWRPYLAYLAGVLGILLARYVEQILPQSAEAAPREHLGSQLIAGTKEDIPVFKRRRRSSSVVSAEMSGCSSKSHRRTSLPCIPREQLMGHSEWDHKRGPRGSQSSGTSITVDIAVMGEAHGLITDLLADPSLPPNVCTSLRAVSNLLSTQLTFQAIHKPRVNPVTSLSENYTCSDSEESSEKDKLAIPKRLRRSLPPGLLRRVSSTWTTTTSATGLPTLEPAPVRRDRSTSIKLQEAPSSSPDSWNNPVMMTLTKSRSFTSSYAISAANHVKAKKQSRPGALAKISPLSSPCSSPLQGTPASSLVSKISAVQFPESADTTAKQSLGSHRALTYTQSAPDLSPQILTPPVICSSCGRPYSQGNPADEPLERSGVATRTPSRTDDTAQVTSDYETNNNSDSSDIVQNEDETECLREPLRKASACSTYAPETMMFLDKPILAPEPLVMDNLDSIMEQLNTWNFPIFDLVENIGRKCGRILSQVSYRLFEDMGLFEAFKIPIREFMNYFHALEIGYRDIPYHNRIHATDVLHAVWYLTTQPIPGLSTVINDHGSTSDSDSDSGFTHGHMGYVFSKTYNVTDDKYGCLSGNIPALELMALYVAAAMHDYDHPGRTNAFLVATSAPQAVLYNDRSVLENHHAAAAWNLFMSRPEYNFLINLDHVEFKHFRFLVIEAILATDLKKHFDFVAKFNGKVNDDVGIDWTNENDRLLVCQMCIKLADINGPAKCKELHLQWTDGIVNEFYEQGDEEASLGLPISPFMDRSAPQLANLQESAISHIVGPLCNSYDSAGLMPGKWVEDSDESGDTDDPEEEEEEAPAPNEEETCENNESPKKKTFKRRKIYCQITQHLLQNHKMWKKVIEEEQRLAGIENQSLDQTPQSHSSEQIQAIKEEEEEKGKPRGEEIPTQKPDQ
modifications: RFP tag; (1)..(1141) conceptual translation of the longest ORF of the PDE3A gene with a mutation at amino acid position 1004 in which phenylalanine is changed to alanine; presence of alanine at amino acid 1004 inactivates phosphodiesterase activity
Q: B1 was tested. Which “hypertrophic response to norepinephrine” value ([1]; neonatal rat ventricular myocytes transfected with construct, norepinephrine) did it give?
A: The value was “blocked the hypertrophic response to norepinephrine”.

Q: What about the cellular hypertrophy [1] of the same molecule?
A: The cellular hypertrophy was “did not induce cellular hypertrophy”.
